Experimental findings from patent publication US10407445B2, “Hepatitis C virus inhibitors” (ENANTA PHARMACEUTICALS, INC., priority 2013, dated 2019) are described below.

The structures appear in SMILES notation.

In experiment [1] the test system is GT1b-Con1 replicon. Briefly: Stable replicon assay, comparison to daclatasvir, GT1b-Con1. The format is cell-based. To be noted: Hepatitis C virus; Replicon GT1b-Con1, NS5A genotype 1b. As to the method:
Stable HCV replicon cell lines were grown in complete media (Dulbecco's modified Eagle medium [DMEM], 2 mM L-glutamine, 0.1 mM essential amino acids, 1 mM sodium pyruvate, 10% fetal bovine serum) with the addition 500 μg/ml […] (G418). Huh7-lunet cells were maintained in the same medium without the addition of G418. Cells were routinely passaged at a dilution of 1:5 two times per week. For stable replicon assays (GT1a-H77, GT1b-Con1, GT2a-JFH, GT2a-J6, GT2a-2b-MD2b, GT2a-2b-J8, GT2a-3a-S52, GT3a-552, GT4a-ED43, GT2a-5a-SA13, GT2a-6a-EUKH2, GT2a-6a-HK6a, and GT2a-7a-QC69), an 8-point 3-fold or half-log dilution series of compound was transferred into three replica 96-well plates containing 1×10^4 cells per well in phenol red-free complete media without G418. For the transient replication assay, Huh7-lunet cells in ice-cold phosphate buffered saline (PBS) were electroporated (Bio-Rad Gene pulser: 950 uF, 270V) with 10 μg purified in vitro transcribed HCV replicon RNA, followed by resuspension in phenol red-free complete media without G418 and plating (1×10^4 cells in 200 μL media/well) into three replica 96-well plates prior to compound addition (1 μl compound per well). For stable and transient replicon assays, luciferase activity of compound-treated cells was measured relative to DMSO-treated cells after 72 h incubation using RENILLA-GLO™ Luciferase Assay (Promega). […]

Experiment [2] deals with GT2a-2b-J8 replicon. The experiment can be described thus: Stable replicon assay, comparison to daclatasvir, GT2a-2b-J8. In kind it is cell-based. To be noted: Hepatitis C virus. The source says: The plasmid pSG-hRlucNeo-JFH1 was generated from pSG-Neo-JFH1 (Kato et al. 2003, Gastroentrology 125:1808-1817). A fragment containing the JFH-1 5′ NTR-hRluc-Neo gene and two unique restriction sites (AgeI and PmeI) was synthesized (Integrated DNA Technologies, Coralville, Iowa). The resulting plasmid was digested with AgeI and PmeI and the excised fragment (5′NTR-hRluc-Neo) was ligated into pSG-Neo-JFH1 digested with the same enzymes to generate pSG-hRlucNeo-JFH1. To allow expression of heterologous NS5A sequences, an NS5A shuttle vector was generated from pSG-Neo-JFH1, in which the entire coding sequence of NS5A plus the first eight codons of NS5B were replaced with an AfeI restriction site. This was done by Infusion cloning (Clontech, Mountain View, Calif.) from two PCR products that were generated using pSG-Neo-JFH1 as a template and the following primer pairs: […]
Stable HCV replicon cell lines were grown in complete media (Dulbecco's modified Eagle medium [DMEM], 2 mM L-glutamine, 0.1 mM essential amino acids, 1 mM sodium pyruvate, 10% fetal bovine serum) with the addition 500 μg/ml […] (G418). […] For stable and transient replicon assays, luciferase activity of compound-treated cells was measured relative to DMSO-treated cells after 72 h incubation using RENILLA-GLO™ Luciferase Assay (Promega). […]
(A replicon is a self-replicating genome or part of one, used to study replication in cells.)

On to `COC(=O)N[C@H](C(=O)N1C[C@]2(CCCOC2)C[C@H]1c1ncc(-c2ccc(-c3ccc4c(ccc5nc([C@@H]6C[C@@H]7CCC[C@@H]7N6C(=O)[C@@H](NC(=O)OC)C(C)C)[nH]c54)c3)cc2)[nH]1)C(C)C` [Compound 16], for which the EC50 in experiment [1] came to 0.008 nM; in experiment [2], 9.9 nM.

`COC(=O)N[C@H](C(=O)N1CCC[C@H]1c1nc(-c2ccc(-c3ccc(-c4c[nH]c([C@@H]5CCCN5C(=O)[C@@H](NC(=O)OC)C(C)C)n4)cc3)cc2)c[nH]1)C(C)C` [Daclatasvir, reference compound]: the EC50 amounted to 0.02 nM in experiment [1] and 20 nM in experiment [2].

The EC50 is the concentration giving half of the maximal effect. Higher therefore signals a need for much substance.
